In PubChem BioAssay AID2060501 (Molecular Pharmacology Branch, DTP, NCI, 2025):

System: 282377-053-R-J1-PDC complex spheroids, viability
Experiment: Anticancer human tumor 282377-053-R-J1-PDC patient-derived colon adenocarcinoma cell line growth inhibition [GQUAD]
Settings: for IC50: curve of first compound; for viability, T/C: stronger effect = lower value; active = viability on the fitted dose curve at most 10% of control; inactive = the rest
Excerpt: DNA G-quadruplex Stabilizer Agents in Combinations in Complex Spheroids
A high-throughput screen of multi-cell type tumor spheroids was designed to identify active combinations of DNA G-quadruplex stabilizer agents and targeted small molecules. Complex spheroids include a stromal component modeled by human endothelial cells (HUVEC) and fibroblasts modeled by human mesenchymal stem cells (MSCs). The concentration ranges selected for each drug and investigational agent were based upon clinically achievable concentrations if the clinical Cmax of the agent was known.
Compounds. The drugs and investigational agents: pidnarulex (CX-5461; NSC782164), APTO-253 (NSC789042), BRACO-19 (NSC847499), peposertib (NSC802822), ceralasertib (NSC780249), elimusertib (NSC800525), camonsertib (NSC841442), AZD-1390 (NSC803789), olaparib (NSC753686), talazoparib (NSC767125), ART-558 (NSC835418), sotorasib (NSC818433), MRTX-1133 (NSC836407), SN-38 (NSC673596), topotecan (NSC609699), etoposide (NSC141540), doxorubicin (NSC123127), gemcitabine (NSC613327), 5-fluorouracil (NSC19893), paclitaxel (NSC125973), vemurafenib (NSC761431), panobinostat (NSC761190), R-306465 (JNJ-16241199; NSC773264), adavosertib (NSC754352), TP-3654 (NSC805149), carboplatin (NSC241240), KSQ-4279 (NSC840948), and staurosporine (NSC755774) were obtained from the National Cancer Institute (NCI) Developmental Therapeutics Program Chemical Repository (34). The FDA-approved anticancer drug set is available from the NCI Developmental Therapeutics Program. […] The stock solutions were prepared in dimethyl sulfoxide (DMSO, Sigma-Aldrich, St. Louis, MO, cat. D2650) at 800-fold the tested concentration and stored at -70 degrees C prior to their use. All drugs and investigational agents were tested over a range starting from a high concentration at or near the clinical Cmax and decreasing in half-log increments. If the clinical Cmax for an agent had not been determined, the highest concentration tested was 10 microM.
2.3 Cell Culture. All cells were maintained in an incubator at 37 degrees C and 5% CO2 with 95% humidity. The PDC lines were cultured according to standard operating procedures established by the NCI PDMR. All PDCs were thawed and cultured in Matrigel-coated flasks prepared with a working solution of 1X Ham's F-12 nutrient mix, without supplementation (Invitrogen, cat. 11765054), 100 U/mL penicillin-streptomycin (Invitrogen, cat. 15140122), and 2.5% Matrigel (Corning Inc., cat. 354248) for the first three passages. The 857933-349-R-J2-PDC line was cultured in 6C/Colon 1B media, which includes advanced DMEM/F-12 (Thermo Fisher Scientific, cat. 12634028), 10 mM HEPES (Thermo Fisher Scientific, cat. 15630080), 1X GlutaMAX supplement (Thermo Fisher Scientific, cat. 35050061), 0.1 mg/mL primocin (InvivoGen, cat. ant-pm-2), 10% defined fetal bovine serum, heat inactivated (HyClone Laboratories Inc., cat. SH30070.03HI), 50% L-WRN conditioned media (ATCC, cat. CRL-3276), 1.25 mM N-Acetyl-L-cysteine (Sigma-Aldrich, cat. A9165), 10 mM nicotinamide (Sigma-Aldrich, cat. N0636), 1X B-27 supplement (Thermo Fisher Scientific, cat. 17504044), 1X N-2 supplement (Thermo Fisher Scientific, cat. 17502048), 10 microM Y-27632 dihydrochloride (Tocris Bioscience, cat. 1254), and 50 ng/mL human EGF recombinant protein (Thermo Fisher Scientific, cat. PHG0311). The 485176-168-R4-J1-PDC line was cultured in Panc media, which includes all 6C/Colon 1B media components plus 100 ng/mL human FGF-10 (Thermo Fisher Scientific, cat. 100-26), 500 nM SB-431542 (Selleckchem, cat. S1067), and gastrin (Tocris, cat. 3006).
[…]

[1] = second compound 0.0316 µM, first compound 0.0316 µM
[2] = second compound 0.0316 µM, first compound 0.316 µM
[3] = second compound 0.1 µM, first compound 0.0316 µM
[4] = second compound 0.1 µM, first compound 0.316 µM
[5] = second compound 0.316 µM, first compound 0.0316 µM
[6] = second compound 0.316 µM, first compound 0.316 µM
[7] = second compound 1 µM, first compound 0.0316 µM
[8] = second compound 1 µM, first compound 0.316 µM
[9] = second compound 3.16 µM, first compound 0.0316 µM
[10] = second compound 3.16 µM, first compound 0.316 µM
[11] = second compound 10 µM, first compound 0.0316 µM
[12] = second compound 10 µM, first compound 0.316 µM
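Note: spheroids exposed to compounds for 7 days before readout.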
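Throughout, for viability, T/C: percent of vehicle DMSO control viability with 100% = untreated-like growth.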

Cc1[nH]c2ccccc2c1CCNCc1ccc(/C=C/C(=O)NO)cc1 + Cc1[nH]c2ccc(F)cc2c1-c1nc2c3cccnc3c3ncccc3c2[nH]1
inactive: viability, T/C (second compound 0.0316 µM, first compound 0.000999 µM) 87.8% | viability, T/C (second compound 0.0316 µM, first compound 0.00316 µM) 100% | viability, T/C (second compound 0.0316 µM, first compound 0.00999 µM) 105% | viability, T/C [1] 90.3% | viability, T/C (second compound 0.0316 µM, first compound 0.0999 µM) 93% | viability, T/C [2] 96.8% | viability, T/C (second compound 0.1 µM, first compound 0.000999 µM) 97.4% | viability, T/C (second compound 0.1 µM, first compound 0.00316 µM) 98.9% | viability, T/C (second compound 0.1 µM, first compound 0.00999 µM) 79.9% | viability, T/C [3] 89.9% | viability, T/C (second compound 0.1 µM, first compound 0.0999 µM) 74.6% | viability, T/C [4] 70.7% | viability, T/C (second compound 0.316 µM, first compound 0.000999 µM) 102% | viability, T/C (second compound 0.316 µM, first compound 0.00316 µM) 106% | viability, T/C (second compound 0.316 µM, first compound 0.00999 µM) 74.6% | viability, T/C [5] 97.4% | viability, T/C (second compound 0.316 µM, first compound 0.0999 µM) 97.8% | viability, T/C [6] 96.1% | viability, T/C (second compound 1 µM, first compound 0.000999 µM) 116% | viability, T/C (second compound 1 µM, first compound 0.00316 µM) 95.8% | viability, T/C (second compound 1 µM, first compound 0.00999 µM) 93.8% | viability, T/C [7] 101% | viability, T/C (second compound 1 µM, first compound 0.0999 µM) 87.9% | viability, T/C [8] 88.1% | viability, T/C (second compound 3.16 µM, first compound 0.000999 µM) 70.8% | viability, T/C (second compound 3.16 µM, first compound 0.00316 µM) 75.7% | viability, T/C (second compound 3.16 µM, first compound 0.00999 µM) 60.9% | viability, T/C [9] 66.2% | viability, T/C (second compound 3.16 µM, first compound 0.0999 µM) 67.1% | viability, T/C [10] 38.1% | viability, T/C (second compound 10 µM, first compound 0.000999 µM) 32.5% | viability, T/C (second compound 10 µM, first compound 0.00316 µM) 33.9% | viability, T/C (second compound 10 µM, first compound 0.00999 µM) 52.2% | viability, T/C [11] 34.4% | viability, T/C (second compound 10 µM, first compound 0.0999 µM) 22.3% | viability, T/C [12] 25.2%
< 0.999 nM: IC50 (second compound 10 µM)
196 nM: IC50 (second compound 3.16 µM)
> 316 nM: IC50 (second compound 0.0316 µM) | IC50 (second compound 0.1 µM) | IC50 (second compound 0.316 µM) | IC50 (second compound 1 µM)

Nc1ccn(C2OC(CO)C(O)C2(F)F)c(=O)n1 (centres undefined) + Cc1[nH]c2ccc(F)cc2c1-c1nc2c3cccnc3c3ncccc3c2[nH]1
inactive: viability, T/C [1] 119% | viability, T/C (second compound 0.0316 µM, first compound 0.1 µM) 74.1% | viability, T/C [2] 35.8% | viability, T/C (second compound 0.0316 µM, first compound 1 µM) 30.9% | viability, T/C (second compound 0.0316 µM, first compound 3.16 µM) 29.4% | viability, T/C (second compound 0.0316 µM, first compound 10 µM) 21.1% | viability, T/C [3] 106% | viability, T/C (second compound 0.1 µM, first compound 0.1 µM) 81.1% | viability, T/C [4] 35.8% | viability, T/C (second compound 0.1 µM, first compound 1 µM) 29.5% | viability, T/C (second compound 0.1 µM, first compound 3.16 µM) 31.8% | viability, T/C (second compound 0.1 µM, first compound 10 µM) 18.9% | viability, T/C [5] 97% | viability, T/C (second compound 0.316 µM, first compound 0.1 µM) 86.3% | viability, T/C [6] 32% | viability, T/C (second compound 0.316 µM, first compound 1 µM) 28.4% | viability, T/C (second compound 0.316 µM, first compound 3.16 µM) 26.7% | viability, T/C (second compound 0.316 µM, first compound 10 µM) 20.5% | viability, T/C [7] 105% | viability, T/C (second compound 1 µM, first compound 0.1 µM) 74.4% | viability, T/C [8] 37.4% | viability, T/C (second compound 1 µM, first compound 1 µM) 30.1% | viability, T/C (second compound 1 µM, first compound 3.16 µM) 23% | viability, T/C (second compound 1 µM, first compound 10 µM) 16% | viability, T/C [9] 74.8% | viability, T/C (second compound 3.16 µM, first compound 0.1 µM) 44.5% | viability, T/C [10] 18.8% | viability, T/C (second compound 3.16 µM, first compound 1 µM) 14.9% | viability, T/C (second compound 3.16 µM, first compound 3.16 µM) 17.6% | viability, T/C (second compound 3.16 µM, first compound 10 µM) 9.41% | viability, T/C [11] 39.2% | viability, T/C (second compound 10 µM, first compound 0.1 µM) 28.9% | viability, T/C [12] 16.2% | viability, T/C (second compound 10 µM, first compound 1 µM) 10.3%
< 31.6 nM: IC50 (second compound 10 µM)
228 nM: IC50 (second compound 1 µM)
222 nM: IC50 (second compound 0.1 µM)
active: viability, T/C (second compound 10 µM, first compound 3.16 µM) 10.9% | viability, T/C (second compound 10 µM, first compound 10 µM) 8.65%
216 nM: IC50 (second compound 0.316 µM)
211 nM: IC50 (second compound 0.0316 µM)
81 nM: IC50 (second compound 3.16 µM)
